Source: patent US6548496B2, “Substituted 3-cyano-[1.7], [1.5], and [1.8] naphthyridine inhibitors of tyrosine kinases” (American Cyanamid Company, priority 1999, dated 2003)
In brackets after ≈: the same amount, converted by molar mass.

Tests used:
[1] = molecular target: Epithelial Cell Kinase (ECK) (Homo sapiens, UniProt P29317); assay: Inhibition of Epithelial Cell Kinase (ECK); assay type: biochemical; conditions: biotinylated peptide substrate, HRP anti-phosphotyrosine readout, pH 7.2
Method: In this standard pharmacological test procedure, a biotinylated peptide substrate is first immobilized on neutravidin-coated microtiter plates. The test drug, the Epithelial Cell Kinase (ECK), Mg^++, sodium vanadate (a protein tyrosine phosphatase inhibitor), and an appropriate buffer to maintain pH (7.2) are then added to the immobilized substrate-containing microtiter wells. ATP is then added to initiate phosphorylation. After incubation, the assay plates are washed with a suitable buffer leaving behind phosphorylated peptide which is exposed to horse radish peroxidase (HRP)-conjugated anti-phosphotyrosine monoclonal antibody. The antibody-treated plates are washed again and the HRP activity in individual wells is quantified as a reflection of degree of substrate phosphorylation. This nonradioactive format was used to identify inhibitors of ECK tyrosine kinase activity where the IC50 is the concentration of drug that inhibits substrate phosphorylation by 50%. Multiple entries for a given compound indication it was tested multiple times.

[2] = molecular target: T1, epidermal growth factor receptor kinase (EGF-R), His-tagged cytoplasmic domain of EGFR (Homo sapiens, UniProt P00533); assay: Inhibition of EGF-R kinase using recombinant enzyme; assay type: biochemical; conditions: RR-SRC peptide substrate, 33P-ATP, 90 min at room temperature
T1 construct: containing the EGFR cDNA encoding amino acids 645-1186 preceded by Met-Ala-(His)6; made in house; host or cells: Sf9 insect cells, recombinant baculovirus vHcEGFR52
Method: Representative test compounds were evaluated for their ability to inhibit the phosphorylation of the tyrosine residue of a peptide substrate catalyzed by the enzyme epidermal growth factor receptor kinase. The peptide substrate (RR-SRC) has the sequence arg-arg-leu-ile-glu-asp-ala-glu-tyr-ala-ala-arg-gly. The enzyme used in this assay is the His-tagged cytoplasmic domain of EGFR. A recombinant baculovirus (vHcEGFR52) was constructed containing the EGFR cDNA encoding amino acids 645-1186 preceded by Met-Ala-(His)6. Sf9 cells in 100 mm plates were infected at an moi of 10 pfu/cell and cells were harvested 48 h post infection. A cytoplasmic extract was prepared using 1% Triton X-100 and applied to Ni-NTA column. After washing the column with 20 mM imidazole, HcEGFR was eluted with 250 mM imidazole (in 50 mM Na2HPO4, pH 8.0, 300 mM NaCl). […]
For the enzyme reaction, 10 uL of each inhibitor (at various concentrations) were added to each well of a 96-well plate. […] The filter discs were washed 2× with 0.5% phosphoric acid and radioactivity was measured using a liquid scintillation counter.
The inhibition data for representative compounds of the invention are shown below in TABLE 1. […] The % inhibition of the test compound was determined for at least three different concentrations and the IC50 value was evaluated from the dose response curve. The % inhibition was evaluated with the following formula: […]

SW620 = assay: Inhibition of cancer cell growth by cell number, SW620; assay type: cell-based, Human; conditions: Homo sapiens, SW-620; 48 hours exposure, Sulforhodamine B
Method: (§1) Human tumor cell lines were plated in 96-well plates (250 μl/well, 1-6×10^4 cells/ml) in RPMI 1640 medium, containing 5% FBS (Fetal Bovine Serum). […] After 48 hours exposure to test compounds, cells were fixed with trichloroacetic acid, and stained with Sulforhodamine B. After washing with trichloroacetic acid, bound dye was solubilized in 10 mM Tris base and optical density was determined using a plate reader. Under conditions of the assay the optical density is proportional to the number of cells in the well. IC50s (concentrations causing 50% inhibition of cell growth) were determined from the growth inhibition plots. The test procedure is described in details by Philip Skehan et. at J. Natl. Canc. Inst., 82, 1107-1112 (1990). […] Information about some of the cell lines used in these test procedures is available from the American […]: Cell Lines and Hybridomas, 1994 Reference Guide, 8th Edition. The Her2Neu cell line is a 3T3 line that has bbeen transfected with Her2 receptor kinase.

MDA435 = assay: Inhibition of cancer cell growth by cell number, MDA435; assay type: cell-based, Human; conditions: Homo sapiens, MDA435; 48 hours exposure, Sulforhodamine B
Method: as §1

A431 = assay: Inhibition of cancer cell growth by cell number, A431; assay type: cell-based, Human; conditions: Homo sapiens, A-431; 48 hours exposure, Sulforhodamine B
Method: as §1

SKBR3 = assay: Inhibition of cancer cell growth by cell number, SKBR3; assay type: cell-based, Human; conditions: Homo sapiens, SK-BR-3; 48 hours exposure, Sulforhodamine B
Method: as §1

A2780S = assay: Inhibition of cancer cell growth by cell number, A2780S; assay type: cell-based, Human; conditions: Homo sapiens, A2780S; 48 hours exposure, Sulforhodamine B
Method: as §1

A2780DDP = assay: Inhibition of cancer cell growth by cell number, A2780DDP; assay type: cell-based, Human; conditions: Homo sapiens; 48 hours exposure, Sulforhodamine B
Method: as §1

Chain of Epithelial Cell Kinase (ECK) (P29317 24-976, species assumed): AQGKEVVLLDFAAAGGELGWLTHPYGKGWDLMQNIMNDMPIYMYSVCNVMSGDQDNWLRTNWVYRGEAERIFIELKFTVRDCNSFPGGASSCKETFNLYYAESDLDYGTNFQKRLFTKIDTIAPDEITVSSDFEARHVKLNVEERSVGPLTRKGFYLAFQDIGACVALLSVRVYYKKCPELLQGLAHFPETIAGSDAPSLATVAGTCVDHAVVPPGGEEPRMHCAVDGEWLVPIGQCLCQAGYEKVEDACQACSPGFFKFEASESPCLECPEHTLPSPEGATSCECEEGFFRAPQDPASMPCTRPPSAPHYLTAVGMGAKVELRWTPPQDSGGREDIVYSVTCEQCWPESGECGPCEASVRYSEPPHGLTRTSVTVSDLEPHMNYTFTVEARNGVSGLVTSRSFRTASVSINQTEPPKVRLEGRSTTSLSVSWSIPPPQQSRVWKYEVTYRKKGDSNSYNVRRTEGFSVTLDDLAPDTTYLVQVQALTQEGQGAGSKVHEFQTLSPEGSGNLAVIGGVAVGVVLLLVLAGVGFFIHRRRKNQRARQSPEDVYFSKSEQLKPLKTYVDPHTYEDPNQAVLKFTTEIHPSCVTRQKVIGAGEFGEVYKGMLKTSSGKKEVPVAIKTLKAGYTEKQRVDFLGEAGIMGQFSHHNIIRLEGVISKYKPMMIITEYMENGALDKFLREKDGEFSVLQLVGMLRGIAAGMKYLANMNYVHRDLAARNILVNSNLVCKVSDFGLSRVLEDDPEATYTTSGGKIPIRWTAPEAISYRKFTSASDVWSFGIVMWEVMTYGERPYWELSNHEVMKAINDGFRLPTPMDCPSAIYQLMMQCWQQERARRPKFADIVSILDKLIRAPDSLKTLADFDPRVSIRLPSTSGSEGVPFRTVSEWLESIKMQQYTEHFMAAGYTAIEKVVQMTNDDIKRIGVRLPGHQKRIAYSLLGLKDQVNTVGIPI
T1 sequence (P00533 669-1210): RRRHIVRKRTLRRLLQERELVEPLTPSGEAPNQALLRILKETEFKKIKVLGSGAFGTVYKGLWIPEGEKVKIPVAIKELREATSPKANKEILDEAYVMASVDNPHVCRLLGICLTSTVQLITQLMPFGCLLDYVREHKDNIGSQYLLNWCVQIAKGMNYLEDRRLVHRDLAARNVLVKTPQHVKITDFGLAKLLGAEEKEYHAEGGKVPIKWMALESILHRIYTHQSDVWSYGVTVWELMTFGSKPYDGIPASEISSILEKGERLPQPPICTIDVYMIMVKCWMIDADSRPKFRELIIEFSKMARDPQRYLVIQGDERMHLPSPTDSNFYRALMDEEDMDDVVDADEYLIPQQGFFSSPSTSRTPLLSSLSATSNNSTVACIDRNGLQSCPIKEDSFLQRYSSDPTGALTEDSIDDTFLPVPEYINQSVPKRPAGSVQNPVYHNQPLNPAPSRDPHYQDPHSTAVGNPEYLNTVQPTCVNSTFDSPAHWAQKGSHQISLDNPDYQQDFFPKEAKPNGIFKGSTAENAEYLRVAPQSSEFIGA

| Structure (SMILES) | melting point | further results |
| --- | --- | --- |
| N#Cc1cnc2cnc(F)cc2c1Oc1ccc(Cl)cc1F [Example 71, 4-(4-Chloro-2-fluoro-phenoxy)-6-fluoro-[1,7]naphthyridine-3-carbonitrile] | 186 to 188 °C |  |
| N#Cc1cnc2cnc(Cl)cc2c1Nc1cccc(Br)c1 [Example 83, 4-(3-Bromo-phenylamino)-6-chloro-[1,7]naphthyridine-3-carbonitrile] | 220 to 223 °C |  |
| Cc1ccc(Nc2c(C#N)cnc3cnc(F)cc23)cc1O [Example 66, 6-Fluoro-4-(3-hydroxy-4-methyl-phenylamino)-[1,7]naphthyridine-3-carbonitrile] | 236 to 239 °C (dec.) | IC50 [1]: > 3.3 µM |
| N#Cc1cnc2cnc(F)cc2c1Nc1ccc(Oc2ccccc2)cc1 [Example 67, 6-Fluoro-4-(4-phenoxy-phenylamino)-[1,7]naphthyridine-3-carbonitrile] | 211 to 213 °C |  |
| CN(C)CCOc1cc2c(Nc3ccc(Oc4ccccc4)cc3)c(C#N)cnc2cn1 [Example 73, 6-(2-Dimethylamino-ethoxy)4(4-phenoxy-phenylamino)-[1,7]naphthyridine-3-carbonitrile] | 159 to 161 °C |  |
| N#Cc1cnc2cnc(F)cc2c1Nc1ccc(F)c(Cl)c1 [Example 69, 4-(3-Chloro-4-fluoro-phenylamino)-6-fluoro-[1,7]naphthyridine-3-carbonitrile] | 108 to 111 °C |  |
| CN(C)CCOc1cc2c(Nc3ccc(F)c(Cl)c3)c(C#N)cnc2cn1 [Example 74, 4-(3-Chloro-4-fluoro-phenylamino)-6-(2-dimethylamino-ethoxy)-[1,7]naphthyridine-3-carbonitrile] | 131 to 132 °C |  |
| N#Cc1cnc2cnc(F)cc2c1Nc1ccc(Cl)cc1Cl [Example 68, 4-(2,4-Dichloro-phenylamino)-6-fluoro-[1,7]naphthyridine-3-carbonitrile] | 206 to 208 °C |  |
| N#Cc1cnc2cnc(N)cc2c1Nc1cccc(Br)c1 [Example 59, 6-Amino-4-(3-bromo-phenylamino)-[1,7]naphthyridine-3-carbonitrile] | 185 to 190 °C (dec.) |  |
| N#Cc1cnc2cnc(NCCN3CCOCC3)cc2c1Nc1cccc(Br)c1 [Example 63, 4-(3-Bromo-phenylamino)-6-(2-morpholino-4-yl-ethylamino)-[1,7]naphthyridine-3-carbonitrile] | 80 to 96 °C (dec.) |  |
| CC#CC(=O)Nc1cnc2ncc(C#N)c(Nc3ccc(F)c(Cl)c3)c2c1 [Example 27, But-2-ynoic acid [5-(3-chloro-4-fluoro-phenylamino)-6-cyano-[1,8]naphthyridin-3-yl]-amide] |  | IC50 [2]: > 0.1 µM |
| CN(C)CC=CC(=O)Nc1cc2c(Nc3cccc(Br)c3)c(C#N)cnc2cn1 [Example 62, 4-Dimethylamino-but-2-enoic Acid, [4-(3-bromo-phenylamino)-3-cyano-[1,7]naphthyridin-6-yl]-amide] | 180 to 185 °C (dec.) | IC50 (SW620): 0.356 mg/L (≈ 0.789 µM) |
| C[Si](C)(C)C#Cc1cc2c(Nc3cccc(Br)c3)c(C#N)cnc2cn1 [Example 85, 4-(3-Bromo-phenylamino)-6-trimethylsilanylethynyl-[1,7]naphthyridine-3-carbonitrile] | 125 °C | IC50 (MDA435): 4.2 mg/L (≈ 9.97 µM); IC50 (A431): 3.06 mg/L (≈ 7.25 µM); IC50 (SKBR3): 3.59 mg/L (≈ 8.52 µM); IC50 (A2780S): 2.34 mg/L (≈ 5.56 µM); IC50 (A2780DDP): 2.97 mg/L (≈ 7.05 µM); IC50 (SW620): 4.72 mg/L (≈ 11.2 µM) |
| N#Cc1cnc2cnc(F)cc2c1Nc1cccc(Br)c1 [Example 57, 4-(3-Bromo-phenylamino)-6-fluoro-[1,7]naphthyridine-3-carbonitrile] | 185 to 195 °C |  |
| CC#CC(=O)Nc1cnc2ncc(C#N)c(Nc3cccc(Br)c3)c2c1 [Example 24, But-2-ynoic Acid [5-(3-bromo-phenylamino)-6-cyano-[1,8]-naphthyridin-3-yl]-amide] |  | IC50 [1]: < 0.04 µM |
| COc1ccc(CNc2cc3c(Nc4cccc(Br)c4)c(C#N)cnc3cn2)cc1 [Example 58, 4-(3-Bromo-phenylamino)-6-(4-methoxy-benzylamino)-[1,7]naphthyridine-3-carbonitrile] | 82 to 86 °C (dec.) |  |
| CC#CC(=O)Nc1cc2c(Nc3cccc(Br)c3)c(C#N)cnc2cn1 [Example 61, But-2-ynoic Acid, [4-(3-bromo-phenylamino)-3-cyano-[1,7]naphthyridin-6-yl]-amide] | 255 °C (dec.) |  |
| CN(C)CCOc1cc2c(Nc3ccc(Cl)cc3F)c(C#N)cnc2cn1 [Example 76, 4-(4-Chloro-2-fluoro-phenylamino)-6-(2-dimethylamino-ethoxy)-[1,7]naphthyridine-3-carbonitrile] | 150 to 152 °C |  |
| C#Cc1cc2c(Nc3cccc(Br)c3)c(C#N)cnc2cn1 [Example 86, 4-(3-Bromo-phenylamino)-6-ethynyl-[1,7]naphthyridine-3-carbonitrile] | 224 °C (dec.) |  |
| CN(C)CCOc1cc2c(Nc3cccc(Br)c3)c(C#N)cnc2cn1 [Example 77, 4-(3-Bromo-phenylamino)-6-(2-dimethylamino-ethoxy)-[1,7]naphthyridine-3-carbonitrile] | 138 to 139 °C | IC50 [1]: > 2.4 µM |
| CNc1cc2c(Nc3cccc(Br)c3)c(C#N)cnc2cn1 [Example 64, 4-(3-Bromo-phenylamino)-6-methylamino-[1,7]naphthyridine-3-carbonitrile] | 250 °C (dec.) |  |
